The values that follow come from patent US9145424B2, “Treatment of amyotrophic lateral sclerosis” (Northwestern University, priority 2008, dated 2015).

Each structure is given as a SMILES string. Converted amounts (≈) assume the structure as drawn. “And” between values parts separate entries of the source, which are not always exact repeats. Equal values may be shown once. “Also recorded” adds a separate entry of the source. Read-outs that look alike come from different tables or passages of the source.

Data set [1] relates to proteasome activity (Ubi-YFP degradation). The data set can be described thus: Proteasome activity assay (Ubi-YFP in HeLa cells). In kind it is cell-based. To be noted: 25 μM compound, 1 μM MG132. As for the experimental part: FIG. 7. Arylsulfanyl pyrazolones prevent MG132-induced accumulation of Ubi-YFP. HeLa cells were co-transfected with Ubi-YFP and CMV-CFP plasmids, treated with 1 μM MG132 and 25 μM arylsulfanyl pyrazolones and Ubi-YFP fluorescence intensity normalized to CFP.
Since the CMB-003299 cytotoxicity of SOD1 protein aggregates may involve inhibition of proteasome activity, compounds that stimulate proteasome activity could reverse or prevent mutant SOD1-induced cytotoxicity. Thus, active compounds were tested for the ability to stimulate proteasome activity using a cell line expressing ubiquitin-conjugated YFP [Ubi-YFP 74]. In these cells, increased proteasome activity causes increased degradation of Ubi-YFP and decreased YFP fluorescence. Conversely, compounds that inhibit proteasome activity increase accumulation of Ubi-YFP and enhanced YFP fluorescence. As expected, MG132 augments YFP fluorescence intensity ˜3-fold compared to untreated controls (FIG. 7). […] Protein aggregates are present in the absence of MG132 and aggregation is suppressed following treatment with a provided compound.
HeLa cells (20,000/chamber) were plated on 8 chambered Tissue-tek coverglass pretreated with 1 mg/ml poly-D-lysine and allowed to adhere for 18 h at 37° C./5% CO2. Cells were transfected with 0.2 μg each CMV-CFP and Ubi-YFP plasmids using Lipofectamine 2000 according to manufacturer's instructions. Cells were allowed to express CFP and Ubi-YFP for 18 h followed by a 6 h incubation with test compounds (25 μM). MG132 (1 μM) was added for a final 18 h incubation and Ubi-YFP degradation assessed by fluorescence microscopy. Fluorescence intensity of CFP and YFP was calculated on a cell-by-cell basis from captured images using AxioVision software (Zeiss). YFP fluorescence was normalized to CFP fluorescence.

Data set [2] is described as follows: Aqueous solubility. It is filed as physicochemical. The method, then: Solubility: Because compounds are stored in DMSO, it is necessary to determine aqueous solubility of initial hit compounds and their analogs. High solubility in aqueous solution is necessary for high GI absorption, bioavailability, and for chemical formulation. Compounds should be soluble in aqueous solution at >10 μg/ml. Solubility of >50 μg/ml is preferred.

In data set [3] the test system is Caco-2. As to the kind of experiment: In vitro Caco-2 permeability. In kind it is in vitro ADME. As for the experimental part:
(§1) General Permeability: High membrane permeability is required for effective GI absorption and optimal bioavailability. Passive permeability is typically assessed in the PAMPA artificial membrane assay (Kansy et al., J. Med. Chem. 2002, 45(8), 1712-1722). Cell-based permeability determinations using the Caco-2 cell assay are more resource intensive but more predictive of active transport or efflux in vivo (Artursson et al., Adv. Drug. Deliv. Rev. 2001, 46(1-3), 27-43). Caco-2 assays are performed as needed during SAR development.
(In general: Caco-2 cells form a polarised layer with tight junctions and transporters.)

A short description of data set [4]: In vitro ADME: metabolic potential / microsomal stability, species not stated. As for the experimental part:
(§2) Metabolism (microsome, S9 fraction, CYP450): Liver Cytochrome P450 (CYP450) enzymes are the major route for xenobiotic metabolism and microsomal and hepatocyte stability is the best predictor of pharmacokinetic half-life. Cross-species comparisons of metabolism in liver microsomes can predict potential issues with liver toxicity in humans. Selected active compounds are tested in liver microsomes from efficacy species (mouse), toxicity species (rat, dog, monkey), and humans for metabolic stability.
CMB-003319 was evaluated for its in vitro ADME properties.
Compounds were sent for in vitro ADME tests to evaluate their ADME properties.

The format of data set [5] is in vitro ADME. To be noted: male, Sprague Dawley, 15 μM, pH 7.4; for % Mean ± S.E. / RR Mean (Response Ratio): rat.
Data set [6] is described as follows: In vitro plasma stability. It is filed as in vitro ADME. The method, then: Plasma stability: Plasma stability of active compounds is assessed in efficacy species (mouse), toxicity species (rat, dog, monkey), and human cells.
Data set [7] is described as follows: In vitro Caco-2 permeability. The following applies: human, Caco-2. In kind it is in vitro ADME. As for the experimental part: as §1
A short description of data set [8]: In vitro microsomal stability, human. The following applies: human, human liver microsomes; read-out: human metabolic potential T1/2. In kind it is in vitro ADME. As for the experimental part: as §2
(§3) CMB-087229 was sent for an evaluation of its in vitro ADME properties.
(§4) Two possible amines, secondary and tertiary AAP analogues, were initially screened in the protection assay (FIG. 30) and for in vitro microsomal stability (Table 1) and Caco-2 permeability (Table 2). […] The solubilities of 2 and 3 were good in aqueous media (≧150 μM), and no precipitation occurred at the highest concentration. The in vitro plasma half-life for both compounds was >60 min.
A general note: Microsomes from liver hold many membrane-bound enzymes, among them those of drug oxidation.

A short description of data set [9]: Brain uptake procedure, LCMS of brain and plasma. It is filed as in vivo, mice (Tg6799 colony with B6/SJL background). To be noted: 1 mg/kg i.p.; for concentration at 10 min / Kp at 10 min: Tg6799 colony with B6/SJL background, mouse, intraperitoneal, 1 mg/kg; for Kp at 10 min: brain/plasma. As for the experimental part:
CMB-087229 Mice Brain and Plasma Data CMB-087229 (1 mg/kg) was administrated to mice (Tg6799 colony with B6/SJL background) by intraperitoneal injection in a 60% PBS and 40% dimethyl sulfoxide solution. At 10 minutes after compound administration the mice were sacrificed. Blood was harvested and plasma was transferred to flash freeze in liquid nitrogen after centrifugation. Mice were perfused. The brain was homogenized in 100% acetonitrile. CMB-003319 (0.5 μg, 1.73 nmol) was added as an internal standard. The homogenates were centrifuged at 12000×g for 12 min, and the supernatant was evaporated. The residue was reconstituted in 33.3% acetonitrile. Solid phase extraction followed by LCMS (API 300 liquid chromatography-tandem mass spectrometry system, Applied Biosystems, Foster City, Calif.; Agilent 1100 series HPLC system, Agilent Technologies, Wilmington, Del.) was used to quantify the amount of CMB-087229 in mouse brain. Solid-phase extraction cartridges (Sep-Pak C18, Water Associates, Milford, Mass.) were washed with 1 mL acetonitrile and equilibrated with 1 mL of water. The reconstituted supernatant was then loaded, washed with 1 mL×2 of 33.3% acetonitrile. CMB-087229 was then dried and submitted for LCMS.

A short description of data set [10]: in vivo. The following applies: mouse.
Data set [11] concerns G93A SOD1 ALS mice. The data set can be described thus: Survival in the G93A SOD1 ALS mouse model. It is filed as in vivo. To be noted: 20 mg/kg. As for the experimental part:
The compounds identified were evaluated in the transgenic G93A ALS mouse model. ADME data was used to determine optimal route of administration. LD50 and maximally-tolerated dose were determined, and that information was used to design and execute pharmacokinetic studies to assess brain bioavailability, and to guide choice of dosing regimen (i.e., frequency, dose, route). […] This may include further dose optimization, phenotype assessment, comparison with compounds of established efficacy, and analysis of brain tissue in treated animals.
In the present study, G93A SOD1 mice and littermate controls were bred from existing colonies at the Bedford VA Medical Hospital. The male G93A SOD1 mice were mated with B6SJL females and the offspring were genotyped by PCR using tail DNA. […] Mice were housed in micro-isolator cages in complete barrier facilities. A 12 hour light-dark cycle was maintained and animals were given free access to food and water. Control and transgenic mice of the same age (±2 days) and from the same ‘f’ generation were selected from multiple litters to form experimental cohorts (n=20 per group). […]
Data sets are generated and analyzed for each clinical and neuropathological measure. […] Dose-dependent effects are assessed in each treatment group using multiple two-sided ANOVA tests. […]

A short description of data set [12]: Metabolic half-life in rats. In kind it is in vitro ADME. To be noted: rat.
Excerpt: as §3

Data set [13] in a line: In vitro microsomal stability, mouse. It is filed as in vitro ADME. The following applies: mouse, mouse liver microsomes; read-out: mouse metabolic potential T1/2. As for the experimental part: as §2, §3, §4
Data set [14] has as its system PC12 cells that express mutant G93A SOD1. As to the kind of experiment: Mutant SOD1-induced cytotoxicity protection assay. The method, then: This idea was tested by examining the sensitivity of PC12 cells to SOD1 aggregates in the presence and absence of proteasome inhibitor MG132. PC12 cells expressing no SOD1, wild type SOD1, G85R SOD1 or G93A SOD1 were grown with or without MG132 (FIG. 1).
PC12 cells expressing G93A SOD1 were treated with 100 nM MG132 with or without co-treatment with geldanamycin or radicicol.

Data set [15] in a line: NADPH dependent rat liver microsomal metabolite study by HPLC. It is filed as in vitro ADME. The following applies: NADPH dependent rat liver microsomes, up to 60 minutes. The method, then: TC-II-68 and TC-II-70 were proposed as possible metabolites and prepared before the study.
After 0, 5, 10, 20, 40, and 60 minutes incubation with rat liver microsome, 50 μL acetonitrile was added to quench reactions. The reaction mixture was vortexed and incubated in an ice bath for 2 h. The samples were centrifuged to remove the precipitated protein. The supernatant solutions were loaded directly for HPLC analysis.

For `Cc1cc(SCc2cc(=O)[nH][nH]2)c(Cl)cc1Cl` [CMB-003319], the “effect on MG132-induced Ubi-YFP fluorescence” value in [1] is “strongly inhibit”. Moreover, the “aqueous-solubility, in words” value in [2] is reported as “medium”. For the same molecule, in [3], the “CaCO-2 permeability, in words” value is “medium”. Further, the metabolic potential entry in [4] is recorded as “medium”. Besides, the “rat liver microsomal stability, in words” value in data set [5] is recorded as “poor microsomal stability”. Besides, in data set [6], the “plasma stability, in words” value is “poor”.

The aqueous solubility is how much of the substance goes into solution per volume. A lower aqueous solubility goes with a poorly soluble substance. In turn, `O=c1cc(COc2cc(Cl)cc(Cl)c2)[nH][nH]1` [CMB-087229] came in with an aqueous solubility in data set [2] of 250 µM (≈ 64.8 µg/mL). For the same molecule, the Papp (A→B) in data set [7] was determined as 37 ×10⁻⁶ cm/s. The half-life in data set [8] is 1.55 h; in data set [6] (plasma, read-out: plasma stability T1/2) it was 0.283 h; in data set [12] it was approximately 2 h; in data set [13], 0.6 h. Moreover, the “Brain Extract concentration” value in data set [9] (10 minutes, single mice) is 0.159 µg/mL and 0.187 µg/mL. In addition, the Brain concentration in data set [9] (10 minutes, single mice) is 0.366 µg/g and 0.467 µg/g. Moreover, the “Brain/plasma Ratio July” value in data set [9] (10 minutes, single mice) is 4.10 and 3.13. Besides, in data set [9] (10 minutes, single mice), the “Plasma concentration July” value is 89.2 ng/mL and 149 ng/mL. Moreover, the concentration at 10 min stood at 121 ng/mL in data set [9] (brain extract, 10 minutes, single mice, read-out: Brain Extract concentration); 363 ± 105 ng/g in data set [9] (brain, 10 min July, read-out: Brain concentration (Mean ± S.E.)); 257 ng/g in [9] (brain, 10 minutes, single mice, read-out: Brain concentration); 110 ± 34.2 ng/mL in data set [9] (plasma, 10 min July, read-out: Plasma concentration (Mean ± S.E.)); 90.4 ng/mL in [9] (plasma, 10 minutes, single mice, read-out: Plasma concentration July). The Kp at 10 min in data set [9] (10 min July, read-out: Brain/Plasma Ratio (Mean ± S.E.)) worked out at 3.36 ± 0.66; in [9] (10 minutes, single mice, read-out: Brain/plasma Ratio July), 2.84. Further, the Kp in [10] was approximately 0.55. For the same molecule, the concentration at 4 h in data set [10] (concentration in the brain) amounted to 194 µM. For the same molecule, the concentration at 3 h in data set [10] (plasma concentration) was 342 µM. Also, in data set [10] (plasma concentration), the concentration at 6 h worked out at 347 µM. For the same molecule, the concentration at 12 h in data set [10] (plasma concentration) worked out at 248 µM. The molecule also gave a concentration at 24 h in data set [10] (plasma concentration) of 1.68 µM. Also, the extension in survival in [11] was 13.4%. Further, the “potency (ED50)” value in data set [14] worked out at 0.074 µM.

In the case of `O=c1cc(CSc2ccc(Cl)cc2)[nH][nH]1` [TC-I-165, 5-((4-Chlorophenylthio)methyl)-1H-pyrazol-3(2H)-one], the “% Mean ± S.E.” value in [5] (0 min) is 100 ± 26.4%; in data set [5] (20 min), 12.4 ± 0.89%. The results for the “RR Mean (Response Ratio)” value in data set [5] (0 min) and in data set [5] (20 min) were 2.529 and 0.314, respectively. In addition, in [15], the microsomal metabolites result was “only TC-II-68 was a direct metabolite; also recorded: the only direct metabolite from TC-I-165 was TC-II-68; also recorded: TC-II-70 is not a metabolite”.
